According to US8741886B2, “Baclofen and acamprosate based therapy of neurological disorders” (Pharnext, priority 2011, dated 2014):

How the values were obtained:
[1] = test system: rat primary cortical cells; test: Toxicity of human Aβ1-42 peptide on primary cortical neuron cells: LDH release; assay type: cell-based; conditions: for effect on Aβ1-42 intoxication, LDH release (in words): Aβ1-42 10 μM, single drugs at the concentrations used in the combination
Protocol: Rat cortical neurons were cultured as described by Singer et al. (47). Briefly pregnant female rats of 15 days gestation were killed by cervical dislocation (Rats Wistar) and the foetuses were removed from the uterus. The cortex was removed and placed in ice-cold medium of Leibovitz (L15) containing 2% of Penicillin 10.000 U/ml and Streptomycin 10 mg/ml and 1% of bovine serum albumin (BSA). Cortexes were dissociated by trypsin for 20 min at 37° C. (0.05%). The reaction was stopped by the addition of Dulbecco's modified Eagle's medium (DMEM) containing DNasel grade II and 10% of foetal calf serum (FCS). Cells were then mechanically dissociated by 3 serial passages through a 10 ml pipette and centrifuged at 515×g for 10 min at +4° C. The supernatant was discarded and the pellet of cells was re-suspended in a defined culture medium consisting of Neurobasal supplemented with B27 (2%), L-glutamine (0.2 mM), 2% of PS solution and 10 ng/ml of BDNF. Viable cells were counted in a Neubauer cytometer using the trypan blue exclusion test. The cells were seeded at a density of 30 000 cells/well in 96 well-plates (wells were pre-coated with poly-L-lysine (10 μg/ml)) and were cultured at +37° C. in a humidified air (95%)/CO2 (5%) atmosphere.
Briefly, Aβ1-42 peptide was reconstituted in define culture medium at 40 μM (mother solution) and was slowly shaken at +37° C. for 3 days in dark. The control medium was prepared in the same conditions.
After 10 days of neuron culture, test compounds were solved in culture medium (+0.1% DMSO) and then pre-incubated with neurons for 1 hour before the Aβ1-42 application (in a final volume per culture well of 100 μl). One hour after test compound(s) incubation, 100 μl of Aβ1-42 peptide was added to a final concentration of 10 μM diluted in presence of drug(s), in order to avoid further test compound(s) dilutions. Cortical neurons were intoxicated for 24 hours. Three separate cultures were performed per condition, 6 wells per condition.
BDNF (50 ng/ml) and Estradiol-β (150 nM) were used as positive control and reference compounds respectively. Three separate cultures will be performed per condition, 12 wells per condition.
Estradiol-β at 150 nM was used as a positive control (FIG. 4).
Estradiol-β was solved in culture medium and pre-incubated for 1 h before the amyloid-β1-42 application.
The following conditions were assessed: • CONTROL PLAQUE: 12 wells/condition • Negative Control: medium alone+0.1% DMSO • Intoxication: amyloid-β1-42 (10 μM) for 24 h • Reference compound: Estradiol (150 nM) 1 hr. • DRUG PLATE: 6 wells/condition • Negative Control: medium alone+0.1% DMSO • Intoxication: amyloid-β1-42 (10 μM) for 24 h • Test compound(s): test compound(s)—1 hr followed by amyloid-β1-42 (10 μM) for 24 h Lactate Dehydrogenase (LDH) Activity Assay
24 hours after intoxication, the supernatant was taken off and analyzed with Cytotoxicity Detection Kit (LDH, Roche Applied Science, ref: 11644793001, batch: 11800300). This colorimetric assay for the quantification of cell toxicity is based on the measurement of lactate dehydrogenase (LDH) activity released from the cytosol of dying cells into the supernatant.
Data were expressed in percentage of control conditions (no intoxication, no amyloid=100%) in order to express the amyloid injury. All values were expressed as mean+/−SEM (s.e.mean) of the 3 cultures (n=6 wells per condition). Statistic analyses were done on the different conditions (ONE-WAY ANOVA followed by the Dunnett's test when it was allowed, Statview software version 5.0).

[2] = test system: neuronal cortical cells; test: Glutamate toxicity assay on primary cortical neurons (neurite network, neurofilament immunostaining); assay type: cell-based, rat; conditions: Baclofen 400 nM, Acamprosate 1.6 nM; glutamate 40 μM, 20 min
Protocol: The efficacy of drug combinations of the invention is assessed on primary cortical neuron cells. The protocol which is used in these assays is the same as described in section A.I.2 above.
After 12 days of neuron culture, drugs of the candidate combinations are solved in culture medium (+0.1% DMSO). Candidate combinations are then pre-incubated with neurons for 1 hour before the Glutamate injury. One hour after incubation with, Glutamate is added for 20 min, to a final concentration of 40 μM, in presence of candidate combinations, in order to avoid further drug dilutions. At the end of the incubation, medium is changed with medium with candidate combination but without glutamate. The culture is fixed 24 hours after glutamate injury. MK801 (Dizocilpinehydrogen maleate, 77086-22-7-20 μM) is used as a positive control.
After permeabilization with saponin (Sigma), cells are blocked for 2 h with PBS containing 10% goat serum, then the cells are incubated with mouse monoclonal primary antibody against Neurofilament antibody (NF, Sigma).
Nuclei of cells are labeled by a fluorescent marker (Hoechst solution, SIGMA), and neurite network quantified. Six wells per condition are used to assess neuronal survival in 3 different cultures.

## NCC(CC(=O)O)c1ccc(Cl)cc1 (centres unmarked) [Baclofen]
[1]
  effect on Aβ1-42 intoxication, LDH release (in words): no significant effect
[2]
  effect on glutamate intoxication (in words): no significant effect

## CC(=O)NCCCS(=O)(=O)O [Acamprosate]
[1]; 8 nM
  prevention of Aβ1-42 intoxication by pre-treatment: 99%
[1]
  effect on Aβ1-42 intoxication, LDH release (in words): no significant effect
[2]
  effect on glutamate intoxication (in words): no significant effect
